Measured values taken from US9561212B2, “Hepatitis C virus inhibitors” (BRISTOL-MYERS SQUIBB COMPANY, priority 2012, dated 2017).
Where two headings read alike, the source gives them in different places.

System: HCV 1b genotype
Assay: microbe, parasite or virus in culture
Assay type: cell-based, Hepatitis C virus
Method: An HCV Replicon assay was utilized in the present disclosure, and was prepared, conducted and validated as described in commonly owned PCT/US2006/022197 and in O'Boyle et. al. Antimicrob Agents Chemother. 2005 April; 49(4):1346-53. Assay methods incorporating luciferase reporters have also been used as described (Apath.com).
HCV-neo replicon cells and replicon cells containing resistance substitutions in the NS5A region were used to test the currently described family of compounds.

[1] = Hepatitis C virus, HCV 1b replicon, read-out: Range: EC50 ranges against HCV 1b
[2] = HCV 1b replicon, read-out: Range: EC50 ranges against HCV 1b
[3] = Hepatitis C virus, HCV 1b replicon, read-out: 1b (μM): EC50 (Effective 50% inhibitory concentration) against the HCV 1b genotype

SMILES	EC50 [1] [nM]	EC50 [2] [nM]	further results
COC(=O)NC(C(=O)N(C)[C@@H](C)c1nc2cc(C#Cc3ccc4nc([C@H](C)N(C)C(=O)C(NC(=O)OC)C5CCOC6(CC6)C5)[nH]c4c3)ccc2[nH]1)C1CCOC2(CC2)C1 (stereo partly drawn) [OL2, methyl (2-(((1S)-1-(5-((2-((1S)-1-((((methoxycarbonyl)amino)(4-oxaspiro[2.5]oct-7-yl)acetyl)(methyl)amino)ethyl)-1H-benzimidazol-6-yl)ethynyl)-1H-benzimidazol-2-yl)ethyl)(methyl)amino)-1-(4-oxaspiro[2.5]oct-7-yl)-2-oxoethyl)carbamate]	0.00501 to 0.1	–	–
COC(=O)NC(C(=O)N1[C@@H](C)CC[C@H]1c1ncc(-c2ccc(-c3ccc(-c4cnc([C@@H]5CC[C@H](C)N5C(=O)C(NC(=O)OC)C5CCOC6(CCCC6)C5)[nH]4)cc3)cc2)[nH]1)C1CCOC2(CCCC2)C1 (single isomer, unassigned) [Example 3.4]	–	0.00501 to 0.1	–
COC(=O)N[C@@H](C(=O)N1C(c2nc(-c3ccc(-c4ccc(-c5c[nH]c(C6C[C@H]7CC7N6C(=O)[C@H](NC(=O)OC)C6C[C@@H]7[C@H](C6)C7(F)F)n5)cc4)cc3)c[nH]2)C[C@H]2CC21)C1C[C@@H]2[C@H](C1)C2(F)F (single isomer, unassigned; diastereomer 3) [QC2.3]	–	0.9 to 700	EC50 (HCV 1b replicon, read-out: 1b (μM): EC50 (Effective 50% inhibitory concentration) against the HCV 1b genotype): 1.08 nM
COC(=O)N[C@H](C(=O)N1[C@@H]2C[C@@H]2C[C@H]1c1nc(-c2ccc(-c3ccc(-c4c[nH]c([C@@H]5C[C@H]6C[C@H]6N5C(=O)[C@@H](NC(=O)OC)C56CC(C(F)(F)F)(C5)C6)n4)cc3)cc2)c[nH]1)C12CC(C(F)(F)F)(C1)C2 [Example OL11, dimethyl (4,4′-biphenyldiylbis(1H-imidazole-4,2-diyl(1R,3S,5R)-2-azabicyclo[3.1.0]hexane-3,2-diyl((1S)-2-oxo-1-(3-(trifluoromethyl)bicyclo[1.1.1]pent-1-yl)-2,1-ethanediyl)))biscarbamate]	0.00501 to 0.1	–	–
C=C1CC(C(NC(=O)OC)C(=O)N2[C@@H](C)CC[C@H]2c2ncc(-c3ccc(-c4ccc(-c5cnc([C@@H]6CC[C@H](C)N6C(=O)C(NC(=O)OC)C6CC(=C)C6)[nH]5)cc4)cc3)[nH]2)C1 (stereo partly drawn) [Example 4.2]	0.1 to 0.9	–	EC50 [3]: 0.243 nM
COC(=O)NC(C(=O)N1[C@@H](C)CC[C@H]1c1ncc(-c2ccc(-c3ccc(-c4cnc([C@@H]5CC[C@H](C)N5C(=O)C(NC(=O)OC)C5CCOC6(CCC6)C5)[nH]4)cc3)cc2)[nH]1)C1CCOC2(CCC2)C1 (single isomer, unassigned) [Example 2.4]	–	0.00501 to 0.1	–
COC(=O)NC(C(=O)N1[C@@H](C)CC[C@H]1c1ncc(-c2ccc(-c3ccc(-c4cnc([C@@H]5CC[C@H](C)N5C(=O)C(NC(=O)OC)C5CCOC6(CCC6)C5)[nH]4)cc3)cc2)[nH]1)C1CCOC2(CCC2)C1 (single isomer, unassigned) [Example 2.2]	–	0.9 to 700	–
COC(=O)NC(C(=O)N1CCCC1c1nc2cc(C#Cc3ccc4[nH]c(C5CCCN5C(=O)C(NC(=O)OC)C5CCOC6(CC6)C5)nc4c3)ccc2[nH]1)C1CCOC2(CC2)C1 [OL9, dimethyl (((2S,2′S)-2,2′-(5,5′-(ethyne-1,2-diyl)bis(1H-benzo[d]imidazole-5,2-diyl))bis(pyrrolidine-2,1-diyl))bis(2-oxo-1-(4-oxaspiro[2.5]octan-7-ypethane-2,1-diyl))dicarbamate]	–	0.1 to 0.9	–
COC(=O)N[C@H](C(=O)N1[C@@H]2C[C@@H]2C[C@H]1c1nc(-c2ccc(-c3ccc(-c4c[nH]c([C@@H]5C[C@H]6C[C@H]6N5C(=O)[C@@H](NC(=O)OC)C5CCC(=O)CC5)n4)cc3)cc2)c[nH]1)C1CCC(=O)CC1 [Example OL10, dimethyl (4,4′-biphenyldiylbis(1H-imidazole-4,2-diyl(1R,3S,5R)-2-azabicyclo[3.1.0]hexane-3,2-diyl((1S)-2-oxo-1-(4-oxocyclohexyl)-2,1-ethanediyl)))biscarbamate]	0.1 to 0.9	–	–
COC(=O)NC(C(=O)N1C[C@@H](C)C[C@H]1c1nc2cc(C#Cc3ccc4c(ccc5nc([C@@H]6C[C@H](C)CN6C(=O)C(NC(=O)OC)C6CCOC7(CC7)C6)[nH]c54)c3)ccc2[nH]1)C1CCOC2(CC2)C1 (stereo partly drawn) [QC9]	–	0.00501 to 0.1	–
COC(=O)NC(C(=O)N1C(c2nc(-c3ccc(-c4ccc(-c5c[nH]c([C@@H]6CC[C@H](C)N6C(=O)C(NC(=O)OC)C6CCC7(CC7)OC6)n5)cc4)cc3)c[nH]2)CC[C@@H]1C)C1CCC2(CC2)OC1 (stereo partly drawn) [Example 1.2]	–	0.00501 to 0.1	–
COC(=O)NC(C(=O)N1CCOCC1c1ncc(-c2ccc(-c3ccc(-c4cnc(C5COCCN5C(=O)C(NC(=O)OC)C5CCOC6(CC6)C5)[nH]4)cc3)cc2)[nH]1)C1CCOC2(CC2)C1 [OL8, dimethyl (((3R,3′R)-3,3′-(5,5'-([1,1′-biphenyl]-4,4′-diyl)bis(1H-imidazole-5,2-diyl))bis(morpholine-4,3-diyl))bis(2-oxo-1-(4-oxaspiro[2.5]octan-7-yl)ethane-2,1 diyl))dicarbamate]	–	–	EC50 (read-out: Range: EC50 ranges against HCV 1b): 0.1 to 0.9 nM
COC(=O)NC(C(=O)N1[C@@H]2C[C@@H]2C[C@H]1c1nc(-c2ccc(-c3ccc(-c4c[nH]c([C@@H]5C[C@H]6C[C@H]6N5C(=O)C(NC(=O)OC)C5[C@H]6COC[C@@H]56)n4)cc3)cc2)c[nH]1)C1[C@H]2COC[C@@H]12 (single isomer, unassigned; diastereomer 2) [QC4.2]	–	0.1 to 0.9	–
COC(=O)NC(C(=O)N1[C@@H](C)CC[C@H]1c1ncc(-c2ccc(-c3ccc(-c4cnc([C@@H]5CC[C@H](C)N5C(=O)C(NC(=O)OC)C5CCOC6(CCCC6)C5)[nH]4)cc3)cc2)[nH]1)C1CCOC2(CCCC2)C1 (single isomer, unassigned) [Example 3.2]	–	0.9 to 700	–
COC(=O)NC(C(=O)N1[C@@H](C)CC[C@H]1c1ncc(-c2ccc(-c3ccc(-c4cnc([C@@H]5CC[C@H](C)N5C(=O)C(NC(=O)OC)C5CCOC6(CCC6)C5)[nH]4)cc3)cc2)[nH]1)C1CCOC2(CCC2)C1 (single isomer, unassigned) [Example 2.1]	–	0.9 to 700	–
C#C[C@@H]1CC[C@@H](c2ncc(-c3ccc(-c4ccc(-c5cnc([C@@H]6CC[C@@H](C#C)N6C(=O)[C@@H](NC(=O)OC)C6C[C@@H](C)O[C@H](C)C6)[nH]5)cc4)cc3)[nH]2)N1C(=O)[C@@H](NC(=O)OC)C1C[C@@H](C)O[C@H](C)C1 (stereo partly drawn) [Example 10.1, dimethyl (4,4′-biphenyldiylbis(1H-imidazole-4,2-diyl((2S,5S)-5-ethynyl-2,1-pyrrolidinediyl)((1S)-1-((2R,6R)-2,6-dimethyltetrahydro-2H-pyran-4-yl)-2-oxo-2,1-ethanediyl)))biscarbamate]	0.1 to 0.9	–	EC50 [3]: 0.263 nM
COC(=O)NC(C(=O)N1[C@@H]2C[C@@H]2C[C@H]1c1nc(-c2ccc(-c3ccc4c(c3)CCc3[nH]c([C@@H]5C[C@H]6C[C@H]6N5C(=O)C(NC(=O)OC)C5CCOC6(CC6)C5)nc3-4)cc2)c[nH]1)C1CCOC2(CC2)C1 (stereo partly drawn) [QC11, methyl (2-((1R,3S,5R)-3-(4-(4-(2-((1R,3S,5R)-2-(((methoxycarbonyl)amino)(4-oxaspiro[2.5]oct-7-yl)acetyl)-2-azabicyclo[3.1.0]hex-3-yl)-4,5-dihydro-3H-naphtho[1,2-d]imidazol-7-yl)phenyl)-1H-imidazol-2-yl)-2-azabicyclo[3.1.0]hex-2-yl)-1-(4-oxaspiro[2.5]oct-7-yl)-2-oxoethyl)carbamate]	0.00501 to 0.1	–	–
COC(=O)NC(C(=O)N1CCCC1c1ncc(-c2ccc(C#Cc3ccc(-c4cnc(C5CCCN5C(=O)C(NC(=O)OC)C5CCOC6(CC6)C5)[nH]4)cc3)cc2)[nH]1)C1CCOC2(CC2)C1 [OL7, dimethyl (((2S,2′S)-2,2′-(5,5′-(ethyne-1,2-diylbis(4,1-phenylene))bis(1H-imidazole-5,2-diyl))bis(pyrrolidine-2,1-diyl))bis(2-oxo-1-(4-oxaspiro[2.5]octan-7-yl)ethane-2,1-diyl))dicarbamate]	–	0.00501 to 0.1	–
COC(=O)N[C@H](C(=O)N1C[C@H](CC2CC2)C[C@H]1c1nc(-c2ccc(-c3ccc(-c4c[nH]c([C@@H]5C[C@@H](CC6CC6)CN5C(=O)[C@@H](NC(=O)OC)C5C[C@@H](C)O[C@H](C)C5)n4)cc3)cc2)c[nH]1)C1C[C@@H](C)O[C@H](C)C1 (stereo partly drawn) [Example JLR-2.0, dimethyl (4,4′-biphenyldiylbis(1H-imidazole-4,2-diyl((2S,4R)-4-(cyclopropylmethyl)-2,1-pyrrolidinediyl)((1S)-1-((2R,6R)-2,6-dimethyltetrahydro-2H-pyran-4-yl)-2-oxo-2,1-ethanediyl)))biscarbamate]	0.00501 to 0.1	–	–
COC(=O)NC(C(=O)N1[C@@H]2C[C@@H]2C[C@H]1c1nc(-c2ccc(-c3ccc(-c4c[nH]c([C@@H]5C[C@H]6C[C@H]6N5C(=O)C(NC(=O)OC)C5C[C@@H]6C[C@@H]6C5)n4)cc3)cc2)c[nH]1)C1C[C@@H]2C[C@@H]2C1 (single isomer, unassigned; diastereomer 2) [QC3.2]	–	0.00501 to 0.1	–
COC(=O)N[C@H](C(=O)N1CC2(CCCC2)C[C@H]1c1nc(-c2ccc(-c3ccc(-c4c[nH]c([C@@H]5CC6(CCCC6)CN5C(=O)[C@@H](NC(=O)OC)C5C[C@@H](C)O[C@H](C)C5)n4)cc3)cc2)c[nH]1)C1C[C@@H](C)O[C@H](C)C1 (stereo partly drawn) [Example JLR-1.0, dimethyl (4,4′-biphenyldiylbis(1H-imidazole-4,2-diyl(3S)-2-azaspiro[4.4]nonane-3,2-diyl((1S)-1-((2R,6R)-2,6-dimethyltetrahydro-2H-pyran-4-yl)-2-oxo-2,1-ethanediyl)))biscarbamate]	0.00501 to 0.1	–	–
